Measured values taken from patent publication US11801246B2, “Methods of treating ischemic disease by administering an ATR kinase inhibitor” (East Tennessee State University Research Foundation, priority 2018, dated 2023).
Entries after “also recorded” stand apart in the source; their conditions may differ. Peptide text beside a SMILES is read from it. * marks the point of attachment. Cbz = O=C(OCc1ccccc1)*; CH2F = FC*

Experiments:
[1] = test system: caspases; assay: Western blot of activated (cleaved) caspases; type: cell-based, human
Text: (§1) FIG. 4 reports data supporting the finding that necrosis is the form of cell death induced by Ca^2+ overload in dividing cells. (A) ATR^+/+ and ATR^flox/− cells were pre-treated with apoptosis inhibitor Z-VAD-FMK and then with ionomycin for cytotoxicity assay. […] As a control, camptothecin (CPT), a DNA double-strand break and typical apoptosis inducer, caused characteristic cell shrinkage and apoptotic bodies. […] (E) A549 cells were transfected with control, ATR, or ATM siRNAs for 72 hrs, then treated with ionomycin for 4 hrs. Treated cells were either analyzed by Western blot or trypan blue staining for determination of cell death. (*, p≤0.01).
(§2) Cultured dividing ATR^+/+ and ATR^flox/− HCT116 cells were pre-treated with apoptosis inhibitor Z-VAD-FMK and then with ionomycin, followed by trypan blue cytotoxicity assay (FIG. 4A). […] As a control, CPT, a DNA double-strand break and typical apoptosis inducer, caused characteristic cell shrinkage and apoptotic bodies. […] FIG. 4E: Dividing A549 cells were transfected with control, ATR, or ATM siRNAs for 72 hrs, then treated with ionomycin for 4 hrs. Treated cells were either analyzed by Western blot or subjected to trypan blue staining for determination of cell death. (*, p≤0.01).

[2] = test system: dividing ATR+/+ and ATRflox/- HCT116 cells; assay: morphologic analysis (phase-contrast microscopy) of form of cell death; type: cell-based, human
Text: as §1, §2

[3] = test system: Primary cortical neurons; assay: NMDA excitotoxicity, live cell count; type: cell-based, mouse; settings: 1 h pretreatment, then 10 uM NMDA for 8 h; p≤0.01
[4] = test system: C57BL/6 mice; assay: middle cerebral artery occlusion (MCAO) stroke model; type: in vivo, mouse
Experimental: Adult mice injected i.p. with vehicle (A) over 3 d after a 30 min unilateral MCAO had larger infarcts (identified by GFAP+ astrocyte borders and more leukocyte (CD45) infiltration) in the brain at 7 d, than with ATR inhibitor (ATRi) VE-822 (B). (C) Quantification of infarct size as % of the contralateral side. Data are mean+SEM. N=4, 6, *p<0.05. […] (E) The number of neurons identified by the area of NeuN staining in the infarct was increased by VE-822 treatment. (F) With vehicle the striatum was essentially devoid of neurons. (G) In VE-822 treated mice rescued neurons often appeared around blood vessels (identified by αSMA). (H) Grid walk analysis of VE-822-treated and mock-treated MCAO mice.
(A) VE-822-treated mice had fewer CD45+ infiltrating leukocytes in the infarct at 7 d after MCAO, as shown by area measurements. N=4, 6, **p<0.01. (B) Only in ATR inhibitor-treated mice, a sub-set of CD45+ cells were double-labeled with TUNEL (white arrows), which identifies DNA breaks in dying cells. (C) These cells included CD68+ microglia/macrophages as shown by split cells in an adjacent section (yellow arrows). Note the perivascular CD68+ cell at the wall of a blood vessel (BV, pink arrow). (D) Cleaved caspase-3 was present in CD45+ and CD68+ cells ([…] confocal slice). (E) The number of TUNEL+ nuclei in the cortex and striatum was higher with the ATR inhibitor treatment. (F) Some of the CD45 cells expressed ATR. (G) After MCAO, ATR expression was induced in PDGFRβ+ pericytes in the infarct. Yellow arrows indicate the cells shown by confocal on the right. Bottom confocal: ATR is seen in a CD13+ pericyte around a microvessel. […] Green arrows=healthy pericytes.
Adult male C57BL/6 mice (10-12 weeks old; JAX Stock 000664, Jackson Labs) were anesthetized with Avertin and received a unilateral middle cerebral artery occlusion (MCAO) for 30 min as described (Kang et al., Endogenous CNTF mediates stroke-induced adult CNS neurogenesis in mice, Neurobiology of Disease 49: 68-78 (2013)). Reduced cortical blood flow was confirmed by Laser-Doppler Flowmetry and body temperature maintained during and after the MCAO. Two hours afterwards, ATR inhibitor VE-822 was injected i.p., and again at 24 and 48 h. One day before and at 3 and 7 days after MCAO, the mice were tested for impaired forepaw use in a glass cylinder test while rearing and the number of placement errors during grid walking. At 7 d mice were processed for histology of the brain as described (Kang et al., 2012, and Kang, et al., 2013), using various antibodies for cellular markers. Infarct size was determined by the area of lost cells in GFAP- and NeuN (neurons)-stained sections. Inflammatory cells were detected and identified with various antibodies and their death documented using an apoptosis detection kit and by nuclear staining.

[5] = test system: Terminally differentiated non-dividing SH-SY5Y cells; assay: cytotoxicity assay, Ca2+ overload in non-dividing cells; type: cell-based, human; settings: glutamate 100 uM, QA 1.0 mM, ionomycin 1.0 uM ± VE-822
Experimental: (§3) (A) Dividing human neural SH-SY5Y cells cultured in Dulbecco's modified Eagle's medium (DMEM) supplemented with 10% fetal bovine serum were treated with glutamate (100 uM), quinolinic acid (QA, 1.0 mM) or ionomycin (10 uM) in the presence and absence of ATR inhibitor VE-822 (ATRi, 80 nM) for 2 hours before cell death was measured using LDH cytotoxicity assay (LDH toxicity kit, Promega) following the vendor's procedures. (B)-(C) human ATR^+/+ and ATR^flox/− HCT116 cells and primary fibroblasts transfected with ATR siRNAs for 48 hrs were treated with ionomycin (10 uM) for the indicated periods before cell death was measured using standard trypan blue cytotoxicity assay. […] (E) Terminally differentiated non-dividing SH-SY5Y cells were treated with glutamate (100 uM), QA (1.0 mM) and ionomycin (1.0 uM)±VE-822 before cell death was measured using cytotoxicity assay. […] (G) Live cells (rounded morphology-white arrowheads) were counted in 5 fields per well. […]
(§4) Dividing human neural SH-SY5Y cells were treated with glutamate (100 uM), quinolinic acid (QA) (1.0 mM) or ionomycin (10 uM)±ATR inhibitor VE-822 (ATRi) for 2 hrs before cell death was measured using LDH cytotoxicity assay. Human ATR^+/+ and ATR^flox/− HCT116 cells and primary fibroblasts±ATR siRNAs were treated with ionomycin (10 uM) for the indicated periods before cell death was measured using trypan blue cytotoxicity assay. […]

[6] = test system: Dividing human neural SH-SY5Y cells; assay: LDH cytotoxicity assay, Ca2+ overload in dividing cells; type: cell-based; settings: glutamate 100 uM, QA 1.0 mM or ionomycin 10 uM, VE-822 80 nM, 2 hrs
Experimental: as §3, §4

[7] = test system: myoblastic cells H9C2; assay: hypoxia/reperfusion assay; type: cell-based, human; settings: dividing myoblastic H9C2 cells ± VE-822; hypoxia/reperfusion incubator
[8] = test system: dividing ATR+/+ and ATRflox/- HCT116 cells; assay: trypan blue cytotoxicity assay with apoptosis inhibitor pretreatment; type: cell-based, human; settings: pretreatment with Z-VAD-FMK, then ionomycin
Text: as §1, §2

[9] = test system: Terminally differentiated non-dividing SH-SY5Y cells; assay: MTT cytotoxicity (cell viability) assay; type: cell-based, human; settings: Z-VAD-FMK combined with VE-822; glutamate
Experimental: FIG. 3 depicts results of a cell viability assay (MTT) showing apoptosis is induced by Ca^2+ overload in terminally differentiated non-dividing SH-SY5Y cells but is reduced by ATR inhibition.
Standard MTT cytotoxicity assay was carried out on terminally differentiated non-dividing SH-SY5Y cells treated with combinations of VE-822, Z-VAD-FMK, and glutamate. Cell differentiation: SH-SY5Y were grown to 60-70% confluency. Complete media was then replaced with 1% serum DMEM supplemented with freshly made all-trans retinoic acid dissolved in DMSO to a final in dish concentration of […]. This media was changed every two days following the same composition until day ten. At day ten the media was replaced with 1% serum DMEM with no further supplementation. A washout period of two days was allowed before any experiments were performed.

[10] = test system: dividing SH-SY5Y cells; assay: DNA damage signaling and AIF activation; type: cell-based, human; settings: up to 8 hr, compared to controls; data not shown
Text: A cell morphology-based assay was used to compare cells treated with ionomycin vs. the apoptosis-inducer camptothecin (CPT) (FIG. 4B, C). […] Importantly, cell death depended on NAD+ depletion and was calpain-independent; and ionomycin or glutamate induced little/no DNA damage signaling and AIF activation in dividing SH-SY5Y cells as compared to controls for up to 8 hr, although DNA damage did occur at 24 hr (data not shown).

[11] = test system: PARP; assay: Western blot analysis of poly(ADP-ribose) (PAR) formation; type: cell-based, human; settings: dividing A549 cells; ionomycin 10 uM
[12] = test system: HCT116 and A549 cells and primary fibroblasts; assay: flow cytometric analysis of necrotic and apoptotic cells; type: cell-based, human; settings: data not shown
[13] = test system: ATR binding to PARP1; assay: ATR co-immunoprecipitation and Western blot for PARP1 binding; type: cell-based, human; settings: dividing A549 cells; ionomycin-treated vs control
Experimental: (B) Dividing ATR^+/+ and ATR^flox/− cells were treated with ionomycin for the indicated periods. (C) Dividing A549 cells were treated with ionomycin, followed by subcellular fractionation and co-immunoprecipitation with ATR antibody and Western blot analysis for PARP1 binding.
Since PARP hyperactivation is known to be the major cause of necrosis by Ca^2+ overload, the effects of ATR on PARsylation in dividing cells was investigated. […] ATR+/+ and ATRflox/− cells were treated with ionomycin for the indicated periods. A549 cells were treated with ionomycin, followed by fractionation and ATR co-IP and Western blot analysis for PARP1 binding.

CC[C@@]1(O)C(=O)OCc2c1cc1n(c2=O)Cc2cc3ccccc3nc2-1 [CPT, camptothecin]
caspase activation (Western blot) [1]: obvious
form of cell death by cell morphology [2]: efficiently induced apoptosis

CNCc1ccc(-c2cc(-c3nc(-c4ccc(S(=O)(=O)C(C)C)cc4)cnc3N)on2)cc1 [VE-822, 5-(4-(Isopropylsulfonyl)phenyl)-3-(3-(4-((methylamino)methyl)phenyl)isoxazol-5-yl)pyrazine-2-amine]
live cells after NMDA excitotoxicity [3]: rescued from NMDA excitotoxicity
pericyte morphology in the infarct ([4]; 7 d after MCAO, VTN-identified pericytes): morphology consistent with necrosis
number of TUNEL-positive cells in the injury site ([4]; 7 d after MCAO, cortex and striatum, vs vehicle): increased
number of neurons in the injury site (NeuN area) ([4]; 7 d after MCAO, vs vehicle): increased; also recorded: greater
CD45-positive leukocytes in the injury site ([4]; 7 d after MCAO, vs vehicle, p<0.01): fewer
infarct size ([4]; 7 days after 30 min MCAO, i.p. at 2, 24 and 48 h, vs vehicle, p<0.05): smaller infarcts
neurological function, grid-walking ([4]; MCAO mice, i.p. at 2, 24 and 48 h, vs mock-treated): improved neurological function
neurological function, affected paw use in cylinder test ([4]; MCAO mice, i.p. at 2, 24 and 48 h, vs vehicle): improved neurological function
neurological function, affected paw use in cylinder test ([4]; MCAO mice, i.p. at 2, 24 and 48 h, vs vehicle, listed as ATRi): increased to the near normal forelimb use index level
cell death (rescue) [5]: rescued
cell death caused by cellular Ca2+ overload inducers [6]: dramatically increased cell death
cell death [7]: Increased death

COC(=O)C[C@H](NC(=O)[C@H](C)NC(=O)[C@@H](NC(=O)OCc1ccccc1)C(C)C)C(=O)CF [Z-VAD-FMK] (Cbz-Val-Ala-Asp(OMe)-CH2F)
cell death (trypan blue) [8]: had no effect on cell death
rescue from death (MTT), combination of apoptosis inhibitor and ATR inhibition [9]: do not have additive effects

N[C@@H](CCC(=O)O)C(=O)O [glutamate]
DNA damage signaling and AIF activation [10]: little/no

C[C@H](CCC(=O)O)C[C@H](C)C[C@H](C)C(=O)/C=C(\O)[C@H](C)C[C@H](C)C/C=C/[C@@H](C)[C@@H](O)[C@@H](C)[C@@H](O)C[C@@H]1CC[C@@](C)([C@H]2CC[C@@](C)([C@@H](C)O)O2)O1 [ionomycin]
PARP activity as formation of PAR polymers [11]: increased PARP activity
DNA damage signaling and AIF activation [10]: little/no
caspase activation (Western blot) [1]: absence of caspase activation
form of cell death by cell morphology [2]: caused necrosis
form of cell death by flow cytometry [12]: necrotic cell death
ATR interaction with PARP1 (co-IP) [13]: interacts with PARP1
